Laboratory results from US8778899B2, “Methods of inducing regulated pancreatic hormone production in non-pancreatic islet tissues” (priority 1999, dated 2014).

Experiments:
[1] = system: adult human liver cells; test: Glucose challenge assay; assay type: cell-based; conditions: 0-25 mM, 2 hours
Procedure: Adult liver cells were treated with Ad-CMV-PDX-1 and growth factors for 5 days. The cells were plated in 6-well plates at 10^5 cells per well.
For time course analysis the cells were preincubated for 2 hours in Krebs-Ringer buffer (KRB) containing 0.1% BSA, followed by incubation for the indicated period in media containing 2 mM or 25 mM glucose. At each time point media samples were analyzed for insulin (Ultra Sensitive Human Insulin RIA kit—Linco Research) and C-peptide secretion (Human C-Peptide RIA kit—Linco Research).
Glucose dose response; Cells were preincubated for 2 hours with KRB containing 0.1% BSA, washed and challenged thereafter with increasing concentrations of D-Glucose or 2-deoxy-Glucose (0-25 mM) for 2 hours. At the end of the incubation period at 25 mM glucose, the cells were washed with KRB and incubated for additional 2 hours in 2 mM glucose containing media.

[2] = system: human liver cells; test: Quantitative real-time RT-PCR gene expression in human liver cells; assay type: cell-based; conditions: without PDX-1
Procedure: Liver cells were cultured in Dulbecco's minimal essential medium (1 gr/L glucose) with or without growth factors as indicated separately (EGF 20 ng/ml, Cytolab Ltd.; Nicotinamide 10 mM, Sigma), and were infected by recombinant adenoviruses (500 moi) for 5 days. The recombinant adenoviruses used in this study: Ad-RIP-GFP-CMV-PDX-1, Ad-CMV-PDX-1, Ad-CMV-hIns^40, Ad-CMV-GFP (Clontech, BD Biosciences).
Alternatively, quantitative real-time RT-PCR, was performed using ABI Prism 7000 sequence Detection system (Applied Biosystems).
Amplification conditions included initiation at 50° C. for 2 minutes, denaturation at 95° C. for 10 minutes, followed by 40 cycles, each cycle included denaturation at 95° C. for 15 seconds and annealing at 60° C. for 1 minute, using the TaqMan PCR Master Mix (Applied Biosystems). Relative quantitative analysis was according to ABI prism 7000 SDS software, using the 2^(−ΔCt) equation. The mRNA levels were corrected for human β-actin mRNA.

Compound | C-peptide secretion in transdifferentiated liver cells [1] | PDX-1 independent effect on pancreatic gene expression [2]
O=CC[C@@H](O)[C@H](O)[C@H](O)CO [2-DOG, 2-deoxy-glucose] | did not trigger C-peptide secretion | 
NC(=O)c1cccnc1 [nicotinamide] |  | Neither nicotinamide nor EGF alone or their combination exhibited PDX-1 independent effect
EGF: epidermal growth factor, soluble factor added to liver cell cultures (NSDSECPLSHDGYCLHDGVCMYIEALDKYACNCVVGYIGERCQYRDLKWWELR; UniProt P01133 971-1023, looked up) |  | Neither nicotinamide nor EGF alone or their combination exhibited PDX-1 independent effect
